We go through eleven compounds from ChEMBL document CHEMBL1139671, “Nuphar alkaloids with immediately apoptosis-inducing activity from Nuphar pumilum and their structural requirements for the activity” (2006).

Type in all cases: functional
Experiment [1] deals with B16-F10. Nature of the experiment: Cytotoxicity against B16F10 cells at 0.1 uM after 72 hrs. Particulars: Mus musculus, B16-F10, 72 h.
Experiment [2] relates to B16-F10. The experiment in a line: Cytotoxicity against B16F10 cells at 1.0 uM after 72 hrs. Conditions: Mus musculus, B16-F10, 72 h.
For experiment [3], the system named is B16-F10. Nature of the experiment: Cytotoxicity against B16F10 cells at 10 uM after 72 hrs. Conditions: Mus musculus, B16-F10, 72 h.
For experiment [4], the system named is HT-1080. The experiment in a line: Cytotoxicity against HT1080 cells at 10 uM after 72 hrs. Conditions: Homo sapiens, HT-1080, 72 h.
Experiment [5] concerns HT-1080. Nature of the experiment: Cytotoxicity against HT1080 cells at 0.1 uM after 72 hrs. Particulars: Homo sapiens, HT-1080, 72 h.
Experiment [6] relates to HT-1080. Nature of the experiment: Cytotoxicity against HT1080 cells at 1.0 uM after 72 hrs. Particulars: Homo sapiens, HT-1080, 72 h.
Experiment [7] relates to U-937. Nature of the experiment: Cytotoxicity against U937 cells at 1.0 uM after 72 hrs. Particulars: Homo sapiens, U-937, 72 h.
The test system of experiment [8] is U-937. The experiment in a line: Cytotoxicity against U937 cells at 10 uM after 72 hrs. Particulars: Homo sapiens, U-937, 72 h.
Experiment [9] concerns B16-F10. Nature of the experiment: Cytotoxicity against B16F10 cells at 0.1 uM after 48 hrs. Conditions: Mus musculus, B16-F10, 48 h.
The subject of experiment [10] is B16-F10. The experiment in a line: Cytotoxicity against B16F10 cells at 1.0 uM after 48 hrs. Conditions: Mus musculus, B16-F10, 48 h.
Experiment [11] relates to B16-F10. Nature of the experiment: Cytotoxicity against B16F10 cells at 10 uM after 48 hrs. Conditions: Mus musculus, B16-F10, 48 h.
The test system of experiment [12] is HT-1080. The experiment in a line: Cytotoxicity against HT1080 cells at 10 uM after 24 hrs. Particulars: Homo sapiens, HT-1080, 24 h.
Experiment [13] concerns HT-1080. Nature of the experiment: Cytotoxicity against HT1080 cells at 0.1 uM after 48 hrs. Conditions: Homo sapiens, HT-1080, 48 h.
In experiment [14] the test system is HT-1080. Nature of the experiment: Cytotoxicity against HT1080 cells at 1.0 uM after 48 hrs. Particulars: Homo sapiens, HT-1080, 48 h.
The test system of experiment [15] is HT-1080. Nature of the experiment: Cytotoxicity against HT1080 cells at 10 uM after 48 hrs. Conditions: Homo sapiens, HT-1080, 48 h.
The test system of experiment [16] is U-937. The experiment in a line: Cytotoxicity against U937 cells at 1.0 uM after 24 hrs. Particulars: Homo sapiens, U-937, 24 h.
Experiment [17] has as its system U-937. Nature of the experiment: Cytotoxicity against U937 cells at 10 uM after 24 hrs. Conditions: Homo sapiens, U-937, 24 h.
In experiment [18] the test system is U-937. Nature of the experiment: Cytotoxicity against U937 cells at 1.0 uM after 48 hrs. Conditions: Homo sapiens, U-937, 48 h.
The test system of experiment [19] is U-937. Nature of the experiment: Cytotoxicity against U937 cells at 10 uM after 48 hrs. Particulars: Homo sapiens, U-937, 48 h.
In experiment [20] the test system is B16-F10. The experiment in a line: Cytotoxicity against B16F10 cells at 10 uM after 24 hrs. Particulars: Mus musculus, B16-F10, 24 h.

Take `C[C@@H]1CC[C@@H](c2ccoc2)N2C[C@@]3(CC[C@@H]12)C[S+]([O-])[C@]1(CC[C@H]2[C@H](C)CC[C@@H](c4ccoc4)N2C1)C3` (some centres undefined): the values for the inhibition at 0.1 µM in the experiment on B16-F10 [1] and with HT-1080 [5] were 10.4% and -6.1%, respectively. Also, the inhibition at 1 µM was 3.2% with B16-F10 [2], -8.1% in the experiment on HT-1080 [6] and 4.7% with U-937 [7]. Moreover, the inhibition at 10 µM in the experiment on B16-F10 [3] was 10.8%; in the experiment on HT-1080 [4], -4.4%; with U-937 [8], 6.3%.
On to `C[C@@H]1CC[C@@H](c2ccoc2)N2[C@H]1CC[C@@]1(CS[C@@]3(CC[C@H]4[C@H](C)CC[C@@H](c5ccoc5)N4[C@@H]3O)C1)[C@H]2O`, for which the inhibition at 0.1 µM in the experiment on B16-F10 [9] is -8%; in the experiment with B16-F10 [1], -3.5%; in the experiment with HT-1080 [13], 9%; with HT-1080 [5], 0.1%. The inhibition at 1 µM with B16-F10 [10] is -15%; in the experiment on B16-F10 [2], -6%; in the experiment on HT-1080 [14] it was 0.5%; with HT-1080 [6] it was -0.9%; in the experiment on U-937 [7], 1.3%; in the experiment on U-937 [16] it was 5.3%. In addition, the inhibition at 1 µM in the experiment on U-937 [18] was 2.3%. For the same compound, the inhibition at 10 µM in the experiment on B16-F10 [11] amounted to 51.8%; with B16-F10 [3], 54.8%; in the experiment on HT-1080 [4], 75.3%; in the experiment on HT-1080 [12] it was 19.3%; in the experiment with HT-1080 [15], 75%; in the experiment with U-937 [8], 81.6%. Also, the inhibition at 10 µM with U-937 [17] came out at 54.7%; in the experiment on U-937 [19] it was 80%; in the experiment on B16-F10 [20], 16.6%.
`C[C@@H]1CC[C@@H](c2ccoc2)N2C[C@]3(CC[C@@H]12)C[S+]([O-])[C@]1(CC[C@H]2[C@H](C)CC[C@@H](c4ccoc4)N2C1)C3` (some centres undefined): the inhibition at 0.1 µM in the experiment on B16-F10 [1] is -3.7%; in the experiment on HT-1080 [5] it was -0.4%. Besides, the inhibition at 1 µM in the experiment with B16-F10 [2] was 7.7%; in the experiment on HT-1080 [6], -1.8%; in the experiment on U-937 [7], 5.8%. Further, the inhibition at 10 µM in the experiment with B16-F10 [3] is 9.1%; in the experiment on HT-1080 [4], 6.8%; with U-937 [8] it was 10%.
For `C[C@@H]1CC[C@@H](c2ccoc2)N2C[C@@]3(CC[C@@H]12)C[C@]1(CC[C@H]2[C@H](C)CC[C@@H](c4ccoc4)N2[C@@H]1O)CS3` [6'-HYDROXYTHIONUPHLUTINE B], the inhibition at 0.1 µM is 1.7% in the experiment with B16-F10 [1] and -9.8% in the experiment on HT-1080 [5]. In addition, the inhibition at 1 µM in the experiment with B16-F10 [2] is -1.6%; in the experiment on HT-1080 [6], -7.3%; with U-937 [7], 0.1%. Further, the values for the inhibition at 10 µM with B16-F10 [3], in the experiment with HT-1080 [4] and in the experiment on U-937 [8] were -4.8%, -9.1% and 0.5%, respectively.
For `C[C@@H]1CC[C@H]2[C@H](C)CC[C@@H](c3ccoc3)N2C1` [(-)-7-EPI-DEOXYNUPHARIDINE], in the experiment on B16-F10 [1], the inhibition at 0.1 µM was -1.5%. Also, the values for the inhibition at 1 µM in the experiment on B16-F10 [2], in the experiment with HT-1080 [6] and in the experiment with U-937 [7] were -9.8%, -6.6% and 6.4%, respectively. Besides, the inhibition at 10 µM was -7.9% in the experiment on B16-F10 [3], -10.1% in the experiment on HT-1080 [4] and 8% with U-937 [8].
For the compound `COc1cc([C@H]2Oc3c(OC)cc(CCCO)cc3[C@@H]2CO)ccc1O` [DIHYDRODEHYDRODICONIFERY ALCOHOL], the inhibition at 0.1 µM was -2.4% in the experiment with B16-F10 [1] and 8.9% with HT-1080 [5]. In addition, the inhibition at 1 µM with B16-F10 [2] is -5.3%; in the experiment on HT-1080 [6], 5.2%; in the experiment with U-937 [7], 9.3%. The inhibition at 10 µM with B16-F10 [3] is -6.5%; in the experiment on HT-1080 [4], 11.9%; in the experiment with U-937 [8], 13.4%.
On to `C[C@@H]1CC[C@@H](c2ccoc2)N2C[C@]3(CC[C@@H]12)CS[C@]1(CC[C@H]2[C@H](C)CC[C@@H](c4ccoc4)N2C1)C3` [NEOTHIOBINUPHARIDINE], for which the inhibition at 0.1 µM in the experiment with B16-F10 [9] was 4.4%; with B16-F10 [1], 8.9%; in the experiment on HT-1080 [13], -1%; in the experiment on HT-1080 [5], -3.4%. For the same compound, the inhibition at 1 µM in the experiment with B16-F10 [10] was -8.9%; with B16-F10 [2] it was 4%; in the experiment with HT-1080 [14], -4.1%; in the experiment on HT-1080 [6] it was -0.8%; with U-937 [7] it was -1.2%; in the experiment with U-937 [16] it was 5.2%. Besides, the inhibition at 1 µM with U-937 [18] was 5.4%. Moreover, the inhibition at 10 µM worked out at 24.7% with B16-F10 [11]; 30.2% with B16-F10 [3]; 38% with HT-1080 [4]; 7.5% in the experiment with HT-1080 [15]; 40.1% with U-937 [8]; 50.7% in the experiment with U-937 [17]. For the same compound, the inhibition at 10 µM with U-937 [19] stood at 65.6%.
As for `C[C@H]1CC[C@H]2[C@H](C)CC[C@@H](c3ccoc3)[N+]2([O-])C1` (some centres undefined) [NUPHARIDINE], the inhibition at 0.1 µM in the experiment with B16-F10 [1] is 0.6%; with HT-1080 [5], -3.3%. Also, the inhibition at 1 µM in the experiment with B16-F10 [2] was 5.3%; in the experiment on HT-1080 [6], -9%; in the experiment on U-937 [7] it was 8%. The inhibition at 10 µM in the experiment on B16-F10 [3] is 4.1%; in the experiment on HT-1080 [4] it was -9%; in the experiment with U-937 [8] it was 11.5%.
Take `C[C@@H]1CC[C@@H](c2ccoc2)N2C[C@](C)(O)CC[C@@H]12` [NUPHAROLUTINE]: the inhibition at 0.1 µM with B16-F10 [1] is -3.1%; with HT-1080 [5], -12.9%. Besides, the inhibition at 1 µM in the experiment on B16-F10 [2] is -1.2%; in the experiment with HT-1080 [6], -13.2%; in the experiment with U-937 [7], 12.5%. Also, the inhibition at 10 µM is -0.9% in the experiment with B16-F10 [3], -16.7% with HT-1080 [4] and 2.8% in the experiment on U-937 [8].
In the case of `C[C@@H]1CC[C@@H](c2ccoc2)N2C[C@@]3(CC[C@@H]12)CS[C@@]1(CC[C@H]2[C@H](C)CC[C@@H](c4ccoc4)N2C1)C3` [THIOBINUPHARIDINE], the inhibition at 0.1 µM was found to be 6.8% with B16-F10 [1] and 9.9% in the experiment with HT-1080 [5]. The inhibition at 1 µM in the experiment on B16-F10 [2] turned out to be 7.9%; in the experiment with HT-1080 [6], 6.3%; in the experiment with U-937 [7], 6.9%. The inhibition at 10 µM in the experiment with B16-F10 [3] was 4.4%; in the experiment on HT-1080 [4], -11.7%; with U-937 [8] it was 10.9%.
Consider `C[C@@H]1CC[C@@H](c2ccoc2)N2C[C@@]3(CC[C@@H]12)CS[C@]1(CC[C@H]2[C@H](C)CC[C@@H](c4ccoc4)N2C1)C3` [THIONUPHLUTINE B], for which the inhibition at 0.1 µM with B16-F10 [1] is 1.7%; in the experiment with HT-1080 [5], -10.8%. For the same compound, the inhibition at 1 µM was -2.2% in the experiment with B16-F10 [2], 0.9% in the experiment with HT-1080 [6] and 9.1% in the experiment on U-937 [7]. The inhibition at 10 µM with B16-F10 [3] was 2.2%; with HT-1080 [4], -12%; with U-937 [8], 7.8%.
